Test results taken from patent US11199497B2, “Fluorescent compounds as sensing agents” (OHIO NORTHERN UNIVERSITY, priority 2016, dated 2021).

Assays:
[1] = Shift in emission spectrum on exposure to varying amounts of FeCl3; conditions: for red-shift in peak emission wavelength / Fe^3+ ions at which shift in emission spectrum is saturated: FeCl3; for total red-shift in peak emission wavelength: FeCl3, at saturation
Protocol: Two substituted chromones (Compound 11 and Compound 20) were dissolved in methanol and exposed to varying amounts of FeCl3 (i.e., Fe^3+). FIG. 4 illustrates the shift in emission spectrum of Compound 11 with increasing amounts of Fe^3+ ions. With about 10 equivalents of Fe^3+ ions, the shift in emission spectrum is saturated, with a total of about a 30 nm red-shift in peak emission wavelength. FIG. 5 illustrates the shift in emission spectrum of Compound 20 with increasing amounts of Fe^3+ ions. With about 10 equivalents of Fe^3+ ions, the shift in emission spectrum is saturated, with a total of about a 50 nm red-shift in peak emission wavelength.
Compound 11 was dissolved in various solvents and then exposed to varying amounts of FeCl3 (i.e., Fe^3+). […]

[2] = Emission spectrum on exposure to varying amounts of (NH4)2Fe(SO4)2.6H2O
Protocol: Compound 11 was dissolved in methanol and then exposed to varying amounts of FeCl3 (i.e., Fe^3+) or (NH4)2Fe(SO4)2.6H2O (i.e., Fe^2+). […] Therefore, Compound 11 may be used to detect Fe^3+ while in the presence of Fe^2+.

[3] = Emission spectrum on exposure to varying amounts of Pb(NO3)2 in different solvents
Protocol: Compound 20 was dissolved in methanol and then exposed to varying amounts of Pb(NO3)2 (i.e., Pb^2+). […] Therefore, a kit, method, system, or the like may utilize a specific solvent system for detection of lead or other ions. Alternatively, and especially where the metal ion concentration is unknown, a kit, method, system, or the like may utilize a series of solvent systems in parallel to determine a concentration of metal ions.
A 5 μM sample of Compound 25 in 3:1 tetrahydrofuran:methanol or 2:1 tetrahydrofuran:methanol was prepared and exposed to varying amounts of Pb(NO3)2 (i.e., Pb^2+) dissolved in deionized water.

[4] = Extraction of lead from water with octanol and triethylamine; conditions: 3 mM Pb(NO3)2 in deionized water, 1 equivalent triethylamine
Protocol: A 3 mM Pb(NO3)2 sample was prepared in deionized water and Compound 25 was added to give a green fluorescence. The lead was then extracted from the water using either 1-octanol or 2-octanol each with 1 equivalent (relative to Compound 25) of triethylamine, which turned the octanol portion green. After washing thrice with 1-octanol, 99% of the Pb^2+had been extracted from the water. After washing twice with 2-octanol, 83% of the Pb^2+had been extracted from the water.

[5] = Detection of lead in methanol extract of soil sample; conditions: methanol filtrate diluted in 3:1 tetrahydrofuran:methanol
Protocol: A lead-free soil sample was collected, placed into a Buchner funnel, and soaked with 1 mL of 0.15 M Pb(NO3)2 in water to introduce lead to the soil. As a control sample, the same was performed with the lead-free soil without exposure to Pb^2+. After soaking, the soil samples were washed with 50 mL of methanol. A sample from each filtrate was diluted in 3:1 tetrahydrofuran:methanol and exposed to Compound 25. […] This example illustrates that the substituted chromones described herein may be useful in detecting ions from soil extracts.

[6] = Ion selectivity, visual inspection when excited at 365 nm; conditions: 3:1 tetrahydrofuran:methanol
Protocol: Compound 25 was dissolved in 3:1 tetrahydrofuran:methanol and then exposed to varying amounts of Zn/SO4 (i.e., Zn^2+), (NH4)2Fe(SO4)2.6H2O (i.e., Fe^2+), Fe2O3 (i.e., Fe^3+), CuSO4 (i.e., Cu^2+), or Pb(NO3)2 (i.e., Pb^2+) each in deionized water. Upon visual inspection when excited at 365 nm, the sample exposed to Pb^2+turned green while all other samples remained blue.

[7] = Visual detection limit of Pb(NO3)2 (color change blue to green); conditions: 5 μM compound in 3:1 tetrahydrofuran:methanol, Pb(NO3)2 in deionized water
Protocol: The detection limit Pb(NO3)2 (i.e., Pb^2+) for Compound 25 in 3:1 tetrahydrofuran:methanol was tested by exposing samples of 5 μM Compound 25 to ever decreasing concentrations of Pb(NO3)2 dissolved in deionized water.
A 40 mM solution of Pb(NO3)2 (i.e., Pb^2+) was prepared in tap water and then diluted with 3:1 tetrahydrofuran:methanol to a lead concentration of 133 μM. The resultant sample was added to solutions of 5 μM sample of Compound 25 in 3:1 tetrahydrofuran:methanol. […] This example illustrates that the lead detection can be performed using tap water, which includes a variety of other ions.

## COC(=O)C(C)(C)C1Oc2ccc(OC)cc2C(=O)/C1=C\O (centres unmarked) [Compound 11, (Z)-methyl-2-(3-(hydroxymethylene)-6-methoxy-4-oxochroman-2-yl)-2-methylpropanoate]
[1]; 1:1 methanol:water
  red-shift in peak emission wavelength: still exhibits a red-shift in peak emission wavelength
[1]; methanol (FIG. 4)
  intensity change for the peak emission wavelength with increasing metal ion concentration: intensity decrease
[1]; methanol
  Fe^3+ ions at which shift in emission spectrum is saturated: about 10 equivalents
  total red-shift in peak emission wavelength: ~30 nm
[1]; methanol, FeCl3 (FIG. 4)
  shift of peak emission wavelength: significant red-shift
[1]; polar aprotic solvents such as tetrahydrofuran, acetonitrile, acetone
  red-shift in peak emission wavelength: did not exhibit an appreciable red-shift
[1]; polar protic solvents like water, methanol and mixtures thereof
  red-shift in peak emission wavelength: exhibited an appreciable red-shift
[2]; methanol (FIG. 6)
  intensity change for the peak emission wavelength with increasing metal ion concentration: intensity decrease
[2]; methanol, (NH4)2Fe(SO4)2.6H2O (FIG. 6)
  shift of peak emission wavelength: does not exhibit appreciable shift

## CCc1ccc2c(c1)C(=O)/C(=C\NS(=O)(=O)c1ccc(C)cc1)C(C(C)(C)C(=O)OC)O2 (centres unmarked) [Compound 20, (Z)-methyl 2-(6-ethyl-3-((4-methylphenylsulfonamido)meth-ylene)-4-oxochroman-2-yl)-2-methylpropanoate]
[3]; 1:1 tetrahydrofuran:methanol
  Pb^2+ at max shift in peak emission wavelength: about 5 equivalents
[3]; 3:1 tetrahydrofuran:methanol
  Pb^2+ at max shift in peak emission wavelength: about 3 equivalents
[3]; THF alone
  shift in peak emission wavelength: no appreciable shift
[3]; methanol
  Pb^2+ at which shift in peak emission wavelength maxes out: 10 equivalents
[3]; methanol, 1:1 and 3:1 tetrahydrofuran:methanol, tetrahydrofuran (FIGS. 7-10), degree depends on solvent
  change of peak emission wavelength in the presence of Pb^2+: red-shift and intensity decrease
[3]; mixed tetrahydrofuran/methanol
  shift in peak emission wavelength at 1 equivalent Pb^2+: does have an appreciable shift
[1]; 1:1 methanol:water
  red-shift in peak emission wavelength: does not
[1]; methanol
  Fe^3+ ions at which shift in emission spectrum is saturated: about 10 equivalents
  total red-shift in peak emission wavelength: ~50 nm

## COC(=O)C(C)(C)C1Oc2ccc(OC)cc2C(=O)/C1=C\NS(=O)(=O)c1ccc(OC)cc1 (centres unmarked) [Compound 25, (Z)methyl-2-(6-methoxy-3-(((4-methoxyphenyl)sulfonamido)methylene)-4-oxochroman-2-yl)-2-methylpropanoate]
[4]; washing thrice with 1-octanol
  Pb^2+ extracted from the water: 99%
[4]; washing twice with 2-octanol
  Pb^2+ extracted from the water: 83%
[5]
  color change with extract from soil sample exposed to Pb^2+: color change from blue to green
[3]; 5 μM compound, 3:1 or 2:1 tetrahydrofuran:methanol
  visual change of fluorescence in the presence of Pb^2+: from blue to green
[3]; 5 μM compound, 3:1 or 2:1 tetrahydrofuran:methanol, excitation 370 nm (FIGS. 11-12)
  change of peak emission wavelength in the presence of Pb^2+: red-shift and intensity decrease
[6]; (NH4)2Fe(SO4)2.6H2O in deionized water
  fluorescence color of sample: remained blue
[6]; CuSO4 in deionized water
  fluorescence color of sample: remained blue
[6]; Fe2O3 in deionized water
  fluorescence color of sample: remained blue
[6]; Pb(NO3)2 in deionized water
  fluorescence color of sample: turned green
[6]; Zn/SO4 in deionized water
  fluorescence color of sample: remained blue
[7]
  speed of color change observed: almost instantaneous
